Experimental data as given in patent publication US11827629B2, “CDGSH iron sulfur domain 2 activators and use thereof” (National Health Research Institutes, priority 2021, dated 2023).

Test system: Cisd2 promoter with firefly luciferase reporter
Test: Cisd2-luciferase reporter assay in HEK293-CISD2 cells
Assay type: cell-based
Settings: Homo sapiens, 24 hours incubation, luciferase luminescence
Experimental: A typical in vitro screening method includes the following steps: (i) obtaining an initial level of Cisd2 in a batch of human embryonic kidney cells 293 (HEK-293 cells) that express Cisd2, (ii) treating the batch of HEK-293 cells with a compound of this invention, and (iii) analyzing the level of Cisd2 after the treatment, thereby determining the potency of the compound as a Cisd2 activator.
Compounds 1-109 were tested for increasing the level of Cisd2 in human embryonic kidney cells 293 (HEK293), a transfected cell line expressing Cisd2, using the Cisd2-luciferase reporter assay as follows.
The transfected HEK293 cells stably expressed Cisd2 promoter with firefly luciferase reporter (HEK293-CISD2). They were kept in Dulbecco's modified Eagle's medium (DMEM) (Gibco, New York, NY, USA). Culture medium was supplemented with 10% heat-inactivated fetal bovine serum (FBS), 2 mM L-Glutamine, 1 mM sodium pyruvate, 0.1% MEM Non-Essential Amino Acids, 1 ug/ml puromycin and 1% penicillin/streptomycin (HyClone, Logan, UT, USA). The cells were maintained at 37° C. in an incubator (Thermo Fisher Scientific, New York, NY, USA) with an atmosphere of 5% CO2. The stably transfected cells were seeded in 384-well plates at a density of 3×10^3 cells/well. After incubation with tested compounds at 37° C. for 24 hours, ONE-Glo™ Luciferase Assay System (Promega, Madison, WI, USA) was added at room temperature for 5 minutes to detect any luciferase activity. Luminescence intensity was registered using plate reader Victor^2V (PerkinElmer, Boston, MA, USA).
EC50 values in this table are presented in three classes, i.e., A: <1 μM, B: 1 μM-5 μM, and C: 5 μM-10 μM.

EC50 [nM] | SMILES
1000 to 5000 | Nc1nnc(SCC(=O)N2Cc3ccccc3C2)s1 [Compound 20, 2-[(5-amino-1,3,4-thiadiazol-2-yl)sulfanyl]-1-(1,3-dihydro-2H-isoindol-2-yl)ethanone]
5000 to 10000 | O=C(CSc1ncc[nH]1)N1Cc2ccccc2C1 [Compound 21, 1-(1,3-dihydro-2H-isoindol-2-yl)-2-(1H-imidazol-2-ylsulfanyl)ethanone]
5000 to 10000 | O=C(CSc1ncccn1)N1Cc2ccccc2C1 [Compound 22, 1-(1,3-dihydro-2H-isoindol-2-yl)-2-(pyrimidin-2-ylsulfanyl)ethanone]
< 1000 | O=C(CCSc1nccs1)N1Cc2ccccc2C1 [Compound 23, 1-(1,3-dihydro-2H-isoindol-2-yl)-3-(1,3-thiazol-2-ylsulfanyl)propan-1-one]
< 1000 | O=C(CCSc1ccccn1)N1Cc2ccc(F)cc2C1 [Compound 24, 1-(5-fluoro-1,3-dihydro-2H-isoindol-2-yl)-3-(pyridin-2-ylsulfanyl)propan-1-one]
1000 to 5000 | O=C(NCCSc1ccccn1)N1Cc2ccccc2C1 [Compound 25, N-[2-(pyridin-2-ylsulfanyl)ethyl]-1,3-dihydro-2H-isoindole-2-carboxamide]
< 1000 | O=C(N1Cc2ccc(F)cc2C1)C(F)(F)Sc1ccccn1 [Compound 26, 2,2-difluoro-1-(5-fluoro-1,3-dihydro-2H-isoindol-2-yl)-2-(pyridin-2-ylsulfanyl)ethanone]
1000 to 5000 | O=C(N1Cc2ccccc2C1)C(F)(F)CSc1ccccn1 [Compound 27, 1-(1,3-dihydro-2H-isoindol-2-yl)-2,2-difluoro-3-(pyridin-2-ylsulfanyl)propan-1-one]
< 1000 | COc1ccc2c(c1)CN(C(=O)CS(=O)(=O)c1nccs1)C2 [Compound 29, 1-(5-methoxy-1,3-dihydro-2H-isoindol-2-yl)-2-(1,3-thiazol-2-ylsulfonyl)ethanone]
< 1000 | O=C(CS(=O)(=O)c1nccs1)N1Cc2cccc(F)c2C1 [Compound 30, 1-(4-fluoro-1,3-dihydro-2H-isoindol-2-yl)-2-(1,3-thiazol-2-ylsulfonyl)ethanone]
< 1000 | O=C(CS(=O)(=O)c1nccs1)N1Cc2ccc(F)cc2C1 [Compound 31, 1-(5-fluoro-1,3-dihydro-2H-isoindol-2-yl)-2-(1,3-thiazol-2-ylsulfonyl)ethanone]
< 1000 | O=C(CS(=O)(=O)c1nccs1)N1Cc2cc(F)c(F)cc2C1 [Compound 32, 1-(5,6-difluoro-1,3-dihydro-2H-isoindol-2-yl)-2-(1,3-thiazol-2-ylsulfonyl)ethanone]
< 1000 | O=C(CS(=O)(=O)c1nccs1)N1Cc2ccc(Cl)cc2C1 [Compound 33, 1-(5-chloro-1,3-dihydro-2H-isoindol-2-yl)-2-(1,3-thiazol-2-ylsulfonyl)ethanone]
< 1000 | O=C(CS(=O)(=O)c1nccs1)N1Cc2cc(Cl)c(Cl)cc2C1 [Compound 34, 1-(5,6-dichloro-1,3-dihydro-2H-isoindol-2-yl)-2-(1,3-thiazol-2-ylsulfonyl)ethanone]
< 1000 | COC(=O)c1ccc2c(c1)CN(C(=O)CS(=O)(=O)c1nccs1)C2 [Compound 35, methyl 2-[(1,3-thiazol-2-ylsulfonyl)acetyl]-2,3-dihydro-1H-isoindole-5-carboxylate]
1000 to 5000 | O=C(CS(=O)(=O)c1nccs1)N1Cc2ccc([N+](=O)[O-])cc2C1 [Compound 36, 1-(5-nitro-1,3-dihydro-2H-isoindol-2-yl)-2-(1,3-thiazol-2-ylsulfonyl)ethanone]
5000 to 10000 | Cc1cnc(S(=O)(=O)CC(=O)N2Cc3ccccc3C2)s1 [Compound 37, 1-(1,3-dihydro-2H-isoindol-2-yl)-2-[(5-methyl-1,3-thiazol-2-yl)sulfonyl]ethanone]
< 1000 | O=C(CS(=O)(=O)c1ccccn1)N1Cc2ccccc2C1 [Compound 38, 1-(1,3-dihydro-2H-isoindol-2-yl)-2-(pyridin-2-ylsulfonyl)ethanone]
< 1000 | COc1ccc2c(c1)CN(C(=O)CS(=O)(=O)c1ccccn1)C2 [Compound 39, 1-(5-methoxy-1,3-dihydro-2H-isoindol-2-yl)-2-(pyridin-2-ylsulfonyl)ethanone]
< 1000 | O=C(CS(=O)(=O)c1ccccn1)N1Cc2ccc(F)cc2C1 [Compound 40, 1-(5-fluoro-1,3-dihydro-2H-isoindol-2-yl)-2-(pyridin-2-ylsulfonyl)ethanone]
1000 to 5000 | Cc1cccc(S(=O)(=O)CC(=O)N2Cc3ccccc3C2)n1 [Compound 41, 1-(1,3-dihydro-2H-isoindol-2-yl)-2-[(6-methylpyridin-2-yl)sulfonyl]ethanone]

EC50 [nM] | SMILES
1000 to 5000 | O=C(CS(=O)(=O)c1cccc(Cl)n1)N1Cc2ccccc2C1 [Compound 42, 2-[(6-chloropyridin-2-yl)sulfonyl]-1-(1,3-dihydro-2H-isoindol-2-yl)ethanone]
1000 to 5000 | O=C(CS(=O)(=O)c1ncccn1)N1Cc2ccccc2C1 [Compound 43, 1-(1,3-dihydro-2H-isoindol-2-yl)-2-(pyrimidin-2-ylsulfonyl)ethanone]
5000 to 10000 | O=C(CS(=O)(=O)c1cc[n+]([O-])cc1)N1Cc2ccccc2C1 [Compound 44, 1-(1,3-dihydro-2H-isoindol-2-yl)-2-[(1-oxidopyridin-4-yl)sulfonyl]ethanone]
< 1000 | O=C(CS(=O)(=O)c1ccccc1)N1Cc2ccccc2C1 [Compound 45, 1-(1,3-dihydro-2H-isoindol-2-yl)-2-(phenylsulfonyl)-ethanone]
< 1000 | O=C(CS(=O)(=O)c1cccs1)N1Cc2ccccc2C1 [Compound 46, 1-(1,3-dihydro-2H-isoindol-2-yl)-2-(thiophen-2-ylsulfonyl)ethanone]
5000 to 10000 | O=C(CS(=O)(=O)Cc1ccccc1)N1Cc2ccccc2C1 [Compound 47, 2-(benzylsulfonyl)-1-(1,3-dihydro-2H-isoindol-2-yl)ethanone]
< 1000 | O=C(CCS(=O)(=O)c1nccs1)N1Cc2ccccc2C1 [Compound 48, 1-(1,3-dihydro-2H-isoindol-2-yl)-3-(1,3-thiazol-2-ylsulfonyl)propan-1-one]
1000 to 5000 | O=C(CCS(=O)(=O)c1ccccn1)N1Cc2ccc(F)cc2C1 [Compound 49, 1-(5-fluoro-1,3-dihydro-2H-isoindol-2-yl)-3-(pyridin-2-ylsulfonyl)propan-1-one]
< 1000 | O=C(N1Cc2ccc(F)cc2C1)C(F)(F)S(=O)(=O)c1ccccn1 [Compound 50, 2,2-difluoro-1-(5-fluoro-1,3-dihydro-2H-isoindol-2-yl)-2-(pyridin-2-ylsulfonyl)ethanone]
< 1000 | O=C1N[C@H]2[C@H](CS[C@H]2CCCCC(=O)Oc2ccc3c(c2)CN(C(=O)CS(=O)(=O)c2nccs2)C3)N1 [Compound 51, 2-[(1,3-thiazol-2-ylsulfonyl)acetyl]-2,3-dihydro-1H-isoindol-5-yl 5-[(3aS,4S,6aR)-2-oxohexahydro-1H-thieno[3,4-d]imidazol-4-yl]pentanoate]
< 1000 | O=C(N1Cc2ccccc2C1)C(F)(F)Sc1nccs1 [Compound 52, 1-(1,3-dihydro-2H-isoindol-2-yl)-2,2-difluoro-2-(1,3-thiazol-2-ylsulfanyl)ethanone]
< 1000 | O=C(N1Cc2ccccc2C1)C(F)(F)S(=O)(=O)c1nccs1 [Compound 53, 1-(1,3-dihydro-2H-isoindol-2-yl)-2,2-difluoro-2-(1,3-thiazol-2-ylsulfonyl)ethanone]
< 1000 | O=C(N1Cc2ccccc2C1)C(F)(F)[S+]([O-])c1nccs1 (centres unmarked) [Compound 54, 1-(1,3-dihydro-2H-isoindol-2-yl)-2,2-difluoro-2-(1,3-thiazol-2-ylsulfinyl)ethanone]
5000 to 10000 | O=C(CSc1ccccn1)N1Cc2ccc(O)cc2C1 [Compound 55, 1-(5-hydroxy-1,3-dihydro-2H-isoindol-2-yl)-2-(pyridin-2-ylsulfanyl)ethanone]
< 1000 | O=C(CSc1cccc(F)c1)N1Cc2ccccc2C1 [Compound 56, 1-(1,3-dihydro-2H-isoindol-2-yl)-2-[(3-fluorophenyl)sulfanyl]ethanone]
< 1000 | O=C(CSc1ccc(Cl)s1)N1Cc2ccccc2C1 [Compound 57, 2-[(5-chlorothiophen-2-yl)sulfanyl]-1-(1,3-dihydro-2H-isoindol-2-yl)ethanone]
< 1000 | O=C(CSc1cc(F)ccc1F)N1Cc2ccccc2C1 [Compound 58, 2-[(2,5-difluorophenyl)sulfanyl]-1-(1,3-dihydro-2H-isoindol-2-yl)ethanone]
< 1000 | O=C(CSc1ccccc1F)N1Cc2ccccc2C1 [Compound 59, 1-(1,3-dihydro-2H-isoindol-2-yl)-2-[(2-fluorophenyl)sulfanyl]ethanone]
< 1000 | O=C(CSc1ccc(F)cc1F)N1Cc2ccccc2C1 [Compound 60, 2-[(2,4-difluorophenyl)sulfanyl]-1-(1,3-dihydro-2H-isoindol-2-yl)ethanone]
< 1000 | Nc1ccc(SCC(=O)N2Cc3ccccc3C2)cc1 [Compound 61, 2-[(4-aminophenyl)sulfanyl]-1-(1,3-dihydro-2H-isoindol-2-yl)ethanone]
